# What was measured:
# [1] = biological target: recombinant human QC (Homo sapiens, UniProt Q16769); test: Chemotactic potency of human MCP-1 in absence or presence of a QC-inhibitor (QC-mediated pGlu formation, then DP4 cleavage); assay type: biochemical; conditions: 10 μM inhibitor, FIG. 12
# Description: Recombinant human MCP-1(1-76) (SEQ ID NO: 1) starting with an N-terminal glutamine (Peprotech) was dissolved in 25 mM Tris/HCl pH 7.6 in a concentration of 10 μg/ml. The MCP-1 solution was either pre-incubated with recombinant human QC (0.0006 mg/ml) for 3 h at 30° C. and subsequently incubated with recombinant human DP4 (0.0012 mg/ml) at 30° C. or incubated with DP4 without prior QC application. In addition, the incubation of Gln^1-MCP-1 with recombinant human QC was carried out in the presence of 10 μM of 1-(3-(1H-imidazol-1-yl)propyl)-3-(3,4-dimethoxyphenyl)thiourea hydrochloride. Resulting DP4 cleavage products were analyzed using Maldi-TOF mass spectrometry after 0 min, 15 min, 30 min, 1 h, 2 h and 4 h.
# The chemotaxis assay was performed using 24 well TransWell plates with a pore size of 5 μm (Corning). THP-1 cells were suspended in RPMI1640 in a concentration of 1*10^6 cells/100 μl and applied in 100 μl aliquots to the upper chamber. Cells were allowed to migrate towards the chemoattractant for 2 h at 37° C. […] Afterwards, cells migrated to the lower chamber were counted using a cell counter system (Schärfe System). The chemotactic index was calculated by dividing cells migrated to the stimulus from cells migrated to the negative control. […]
# [2] = tested on: RAW 264.7 cells; test: Western Blot of mMCP-1 N1pE and total mMCP-1 in RAW 264.7 cell culture supernatant; assay type: cell-based, mouse; conditions: RAW 264.7 supernatants, different QCI
# Description: Stimulation of RAW 264.7 and inhibitor application occurred according to Example 9. For Western Blot analysis, proteins of cell culture supernatants were separated by application to a SDS gel electrophoresis. Separated proteins were electrically transferred to nitrocellulose membranes. Membranes were blocked for one hour with TBST-M (=TBST+5% skimmed milk) at room temperature with gentle shaking. Antibody incubation occurred over night at 4° C. on a rocking platform with the detection antibody for total mMCP-1 (Rat anti mouse MCP-1, R&D Systems) diluted to 1 μg/ml in equal volumes of TBST-M or the detection antibody for mMCP-1 N1pE (clone 332-4B8), respectively. Secondary anti-mouse and anti-rat antibody conjugated with horseradish peroxidase were used for signal detection, following standard procedures.
# [3] = tested on: thioglycollate-induced peritonitis; test: mMCP-1 N1pE/mMCP-1 ratio and monocyte infiltration in mice treated with thioglycollate and QCI; assay type: in vivo, mouse; conditions: QCI intraperitoneal 30 minutes before thioglycollate
# Description: To capture mouse MCP-1, commercially available polyclonal antiserum rabbit anti mJE (Peprotech, Hamburg, Germany) as capture antibody which specifically binds mouse MCP-1 was diluted in PBS to 500 ng/ml and immobilized in polystyrene 96-well microtitre plates over 4-7 nights at 4° C. Thereafter, blocking occurred for 2 hours at room temperature with ELISA Blocker (Thermo Fisher Scientific, Waltham, USA). For preparation of the standard curve recombinant mMCP-1 was incubated with mouse Glutaminyl Cyclase (QC) in order to obtain mMCP-1 N1pE. The recombinant mMCP-1 N1pE standard peptide was serially diluted with ELISA Blocker from 1950 pg/ml down to 19.5 pg/ml and added to the wells in duplicate. Two wells filled with ELISA Blocker represent the standard curve value 0 pg/ml. After an incubation period of 2 hours at room temperature, plates were washed at least three times with TBS-T. For detection of mMCP-1 N1pE, the MCP-1 N1pE antibody clone 348-2C9 together with HRP-conjugated anti mouse antibody were both diluted in ELISA Blocker to final concentrations of 500 ng/ml. […] Absorption at 450/540 nm was determined by a Tecan Sunrise plate reader. […]
# Thioglycollate was injected intraperitoneal in mice. […] Infiltrated monocytes were counted by FACS analysis via double staining of 7/4 and Ly6G antigens.
# recombinant human QC, sequence (Q16769 29-361): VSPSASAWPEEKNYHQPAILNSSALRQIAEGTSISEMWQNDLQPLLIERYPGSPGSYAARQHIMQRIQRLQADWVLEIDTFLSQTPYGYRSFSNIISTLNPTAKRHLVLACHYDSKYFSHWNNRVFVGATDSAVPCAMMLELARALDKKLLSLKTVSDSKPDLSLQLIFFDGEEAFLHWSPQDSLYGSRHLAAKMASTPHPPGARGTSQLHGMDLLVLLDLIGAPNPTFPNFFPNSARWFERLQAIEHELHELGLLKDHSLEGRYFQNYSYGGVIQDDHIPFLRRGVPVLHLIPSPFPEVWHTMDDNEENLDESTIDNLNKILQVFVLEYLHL
smiles,measurement,setting,value
"COc1ccc(NC(=S)NCCCn2ccnc2)cc1OC.Cl [QCI, 1-(3-(1H-imidazol-1-yl)propyl)-3-(3,4-dimethoxyphenyl)thiourea hydrochloride]",pGlu-formation of Gln^1-MCP-1 by QC,[1],prevents pGlu-formation
same,Western Blot signal of mMCP-1 N1pE,[2]; FIG. 22A,concentration dependent
same,Western Blot signal intensity of total mMCP-1,[2]; FIG. 22B,no change
same,number of infiltrating monocytes to the peritoneum,"[3]; FACS, FIG. 23B",decreased number
same,mMCP-1 N1pE/mMCP-1 ratio in peritoneal lavage fluid,[3]; lavage after 4 h,dose dependent reduction

# Reference: US20110212853A1, “NOVEL DIAGNOSTIC METHOD” (PROBIODRUG AG, priority 2010, published 2011)
